Laboratory results reported in PubChem BioAssay (NCI).
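Five compound concentrations were applied to cells in 96-well plates for 48 hours; endpoints were derived by simple linear interpolation of the resulting dose-response curve. At the GI50, growth is halved. The concentration for full growth arrest is given as TGI.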

Key:
Assay in all cases: NCI-60 cell line screen, 48 h
HOP-18 NSCLC = tested on: HOP-18 NSCLC
SNB-78 CNS = tested on: SNB-78 CNS
DLD-1 colon = tested on: DLD-1 colon
RXF-631 renal = tested on: RXF-631 renal
KM20L2 colon = tested on: KM20L2 colon
XF 498 CNS = tested on: XF 498 CNS
DMS 114 small cell lung = tested on: DMS 114 small cell lung
LXFL 529 NSCLC = tested on: LXFL 529 NSCLC

Structure (SMILES)	TGI (HOP-18 NSCLC)	TGI (SNB-78 CNS)	TGI (DLD-1 colon)	TGI (RXF-631 renal)	TGI (KM20L2 colon)	TGI (XF 498 CNS)	TGI (DMS 114 small cell lung)	TGI (LXFL 529 NSCLC)	GI50 (SNB-78 CNS)	GI50 (DLD-1 colon)	GI50 (LXFL 529 NSCLC)	GI50 (KM20L2 colon)
c1ccc(C2C3=C(Nc4ncnn42)c2ccccc2C3)cc1 (stereo unspecified)	> 100 µM	> 100 µM	38 µM	> 100 µM	24.5 µM	> 100 µM	24.1 µM					
COc1ccc(C2Oc3c(cc(O)c(OC)c3C)[C@@H]2C)cc1OC (stereo partly specified)	> 100 µM	> 100 µM	> 100 µM	> 100 µM	> 100 µM	> 100 µM	> 100 µM	> 100 µM				
N.N.N.O=[N+]([O-])[O-].O=[N+]([O-])[O-].O=[N+]([O-])[O-].O=[N+]([O-])[O-].[Co+3]		> 100 µM	> 100 µM		> 100 µM			> 100 µM	> 100 µM	> 100 µM	> 100 µM	> 100 µM
Cn1cc2ccccc2c1-c1nc(N)nc(F)n1		> 100 µM	> 100 µM	> 100 µM	> 100 µM	> 100 µM	> 100 µM	> 100 µM				
O=C1C(Cl)=C(N2CCN(C3=C(Cl)C(=O)c4ccccc4C3=O)CC2)C(=O)c2ccccc21		1.56 µM	0.937 µM	3.46 µM	14 µM	2.66 µM	2.64 µM	0.793 µM				
COc1cc(/C=C2/C(=O)N(C(=O)c3ccccc3O)N=C2C)cc(OC)c1OC		> 100 µM	> 100 µM		> 100 µM	> 100 µM	21.7 µM	> 100 µM				
NC(N)=NS(=O)(=O)c1ccc(NCc2c3ccccc3[n+]([O-])c3ccccc23)cc1	52.3 µM	> 100 µM	> 100 µM		> 100 µM		56.6 µM	80.5 µM				
CCOC(=O)C1Cc2[nH]c3ccccc3c2C(C)C1C (stereo unspecified)		62.4 µM	34.5 µM		31.8 µM	37.9 µM	58.5 µM	57.1 µM				
COc1ccc(C(C#N)NNC(=O)c2ccccc2O)cc1OC (stereo unspecified)	> 100 µM	> 100 µM	> 100 µM		62.5 µM		12.7 µM	> 100 µM				
